For 23 molecules, IC50 results are on record in patent US20240317721A1, “PYRAZOLYL DERIVATIVES AS INHIBITORS OF THE KRAS MUTANT PROTEIN” (NOVARTIS AG, priority 2021, published 2024).

The experiment deals with KRasG12C (M1-K169, biotinylated on the N-terminus) (Homo sapiens (Human), UniProt P01116, G12C). Briefly: Covalent competition assay: scintillation proximity assay (SPA) quantifying covalent modification of KRASG12C. In kind it is binding. Particulars: competition with radiolabeled covalent probe (Compound B/Compound A), 2 hours incubation, 10 nM KRasG12C. The method, boiled down: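 Scintillation proximity readout after streptavidin bead capture (30 min) of biotinylated KRasG12C(M1-K169):GDP, 10 nM final, which was covalently labelled over 2 h by 25 nM radio-probe plus 475 nM cold probe unless blocked by compound.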
Regarding `C=CC(=O)N1CC2(CC(n3nc(N4CCC(N5C[C@H](OC)[C@H](OC)C5)CC4(C)C)c(-c4c(Cl)c(C)cc5[nH]ncc45)c3C)C2)C1` (single isomer, unassigned) [Example 102b], the IC50 was 23 nM. For `C=CC(=O)N1CC2(CC(n3nc(N4CCCCC4(C)C)c(-c4c(Cl)c(C)cc5[nH]ncc45)c3C)C2)C1` (single isomer, unassigned) [Example 103a, 1-(6-(4-(5-chloro-6-methyl-1H-indazol-4-yl)-3-(2,2-dimethylpiperidin-1-yl)-5-methyl-1H-pyrazol-1-yl)-2-azaspiro[3.3]heptan-2-yl)prop-2-en-1-one], the IC50 was above 5000 nM. With `C=CC(=O)N1CC2(CC(n3nc(N4CCCCC4(C)C)c(-c4c(Cl)c(C)cc5[nH]ncc45)c3C)C2)C1` (single isomer, unassigned) [Example 103b, 1-(6-(4-(5-chloro-6-methyl-1H-indazol-4-yl)-3-(2,2-dimethylpiperidin-1-yl)-5-methyl-1H-pyrazol-1-yl)-2-azaspiro[3.3]heptan-2-yl)prop-2-en-1-one], the IC50 worked out at 315 nM. In the case of `C=CC(=O)N1CC2(CC(n3nc(N4C[C@H](C)N(C5COC5)CC4(C)C)c(-c4c(Cl)c(Cl)cc5[nH]ncc45)c3C)C2)C1` (single isomer, unassigned) [Example 104a], the 50% inhibitory concentration (IC50) is 4440 nM. As for `C=CC(=O)N1CC2(CC(n3nc(N4C[C@H](C)N(C5COC5)CC4(C)C)c(-c4c(Cl)c(Cl)cc5[nH]ncc45)c3C)C2)C1` (single isomer, unassigned) [Example 104b], the IC50 was determined as 27 nM. As to `C=CC(=O)N1CC2(CC(n3nc(N4CCN(C[C@@H]5COCCO5)C[C@@]4(C)C(F)F)c(-c4c(Cl)c(Cl)cc5[nH]ncc45)c3C)C2)C1` (single isomer, unassigned) [Example 105a], the IC50 was above 5000 nM.

On to `C=CC(=O)N1CC2(CC(n3nc(N4CCN(C[C@@H]5COCCO5)C[C@@]4(C)C(F)F)c(-c4c(Cl)c(Cl)cc5[nH]ncc45)c3C)C2)C1` (single isomer, unassigned) [Example 105b], for which the IC50 amounted to 19 nM.

For `C=CC(=O)N1CC2(CC(n3nc(N4CCN(C5CCOCC5)C[C@@]4(C)C(F)F)c(-c4c(Cl)c(Cl)cc5[nH]ncc45)c3C)C2)C1` (single isomer, unassigned) [Example 106a], the IC50 is above 5000 nM.

As to `C=CC(=O)N1CC2(CC(n3nc(N4CCN(C5CCOCC5)C[C@@]4(C)C(F)F)c(-c4c(Cl)c(Cl)cc5[nH]ncc45)c3C)C2)C1` (single isomer, unassigned) [Example 106b], the IC50 was found to be 14 nM.

With `C=CC(=O)N1CC2(CC(n3nc(N4CCN(C[C@@H]5COCCO5)C[C@@]4(CC)C(F)F)c(-c4c(Cl)c(C)cc5[nH]ncc45)c3C)C2)C1` (single isomer, unassigned) [Example 107a], the IC50 is above 5000 nM. As to `C=CC(=O)N1CC2(CC(n3nc(N4CCN(C[C@@H]5COCCO5)C[C@@]4(CC)C(F)F)c(-c4c(Cl)c(C)cc5[nH]ncc45)c3C)C2)C1` (single isomer, unassigned) [Example 107b], the 50% inhibitory concentration (IC50) was 10 nM. The figure for `C=CC(=O)N1CC2(CC(n3nc(N4CC5(CCOC5)C4)c(-c4c(Cl)c(Cl)cc5[nH]ncc45)c3C)C2)C1` (single isomer, unassigned) [Example 108a, 1-(6-(4-(5,6-dichloro-1H-indazol-4-yl)-5-methyl-3-(6-oxa-2-azaspiro[3.4]octan-2-yl)-1H-pyrazol-1-yl)-2-azaspiro[3.3]heptan-2-yl)prop-2-en-1-one] is above 5000 nM; for `C=CC(=O)N1CC2(CC(n3nc(N4CC5(CCOC5)C4)c(-c4c(Cl)c(Cl)cc5[nH]ncc45)c3C)C2)C1` (single isomer, unassigned) [Example 108b, 1-(6-(4-(5,6-dichloro-1H-indazol-4-yl)-5-methyl-3-(6-oxa-2-azaspiro[3.4]octan-2-yl)-1H-pyrazol-1-yl)-2-azaspiro[3.3]heptan-2-yl)prop-2-en-1-one] it is 576 nM; for `C=CC(=O)N1CC2(CC(n3nc(N4CCN(C[C@@H]5COCCO5)C[C@]4(C)CC)c(-c4c(Cl)c(C)cc5c4cnn5C)c3C)C2)C1` (single isomer, unassigned) [Example 109a] it is 334 nM.

Take `C=CC(=O)N1CC2(CC(n3nc(N4CCN(C[C@@H]5COCCO5)C[C@]4(C)CC)c(-c4c(Cl)c(C)cc5c4cnn5C)c3C)C2)C1` (single isomer, unassigned) [Example 109b]: the IC50 is above 5000 nM. As for `C=CC(=O)N1CC2(CC(n3nc(N4CC[C@@H](OCCN5CCOCC5)CC4(C)C)c(-c4c(Cl)c(Cl)cc5[nH]ncc45)c3C)C2)C1` (single isomer, unassigned) [Example 110a], the IC50 was above 5000 nM.

On to `C=CC(=O)N1CC2(CC(n3nc(N4CC[C@@H](OCCN5CCOCC5)CC4(C)C)c(-c4c(Cl)c(Cl)cc5[nH]ncc45)c3C)C2)C1` (single isomer, unassigned) [Example 110b], for which the IC50 was determined as 10 nM. In the case of `C=CC(=O)N1CC2(CC(n3nc(N4C5CCC4COC5)c(-c4c(Cl)c(C)cc5[nH]ncc45)c3C)C2)C1` (single isomer, unassigned) [Example 112a], the IC50 was above 5000 nM. The figure for `C=CC(=O)N1CC2(CC(n3nc(N4C5CCC4COC5)c(-c4c(Cl)c(C)cc5[nH]ncc45)c3C)C2)C1` (single isomer, unassigned) [Example 112b] is 171 nM. In the case of `Cc1cc2[nH]ncc2c(-c2c(N3CCN(C4COC4)CC34CCC4)nn(C3CC4(C3)CN(C(=O)/C=C/CF)C4)c2C)c1Cl` (single isomer, unassigned) [Example 113a, (E)-1-(6-(4-(5-chloro-6-methyl-1H-indazol-4-yl)-5-methyl-3-(8-(oxetan-3-yl)-5,8-diazaspiro[3.5]nonan-5-yl)-1H-pyrazol-1-yl)-2-azaspiro[3.3]heptan-2-yl)-4-fluorobut-2-en-1-one], the IC50 was above 5000 nM. In the case of `Cc1cc2[nH]ncc2c(-c2c(N3CCN(C4COC4)CC34CCC4)nn(C3CC4(C3)CN(C(=O)/C=C/CF)C4)c2C)c1Cl` (single isomer, unassigned) [Example 113b, (E)-1-(6-(4-(5-chloro-6-methyl-1H-indazol-4-yl)-5-methyl-3-(8-(oxetan-3-yl)-5,8-diazaspiro[3.5]nonan-5-yl)-1H-pyrazol-1-yl)-2-azaspiro[3.3]heptan-2-yl)-4-fluorobut-2-en-1-one], the IC50 stood at 105 nM. Take `C=CC(=O)N1CC2(CC(n3nc(N4CCN(C5COC5)CC45CCC5)c(-c4c(Cl)c(C)cc5[nH]nc(N)c45)c3C)C2)C1` (single isomer, unassigned) [Example 114a, 1-(6-(4-(3-amino-5-chloro-6-methyl-1H-indazol-4-yl)-5-methyl-3-(8-(oxetan-3-yl)-5,8-diazaspiro[3.5]nonan-5-yl)-1H-pyrazol-1-yl)-2-azaspiro[3.3]heptan-2-yl)prop-2-en-1-one]: the IC50 is 7 nM.

`C=CC(=O)N1CC2(CC(n3nc(N4CCN(C5COC5)CC45CCC5)c(-c4c(Cl)c(C)cc5[nH]nc(N)c45)c3C)C2)C1` (single isomer, unassigned) [Example 114b, 1-(6-(4-(3-amino-5-chloro-6-methyl-1H-indazol-4-yl)-5-methyl-3-(8-(oxetan-3-yl)-5,8-diazaspiro[3.5]nonan-5-yl)-1H-pyrazol-1-yl)-2-azaspiro[3.3]heptan-2-yl)prop-2-en-1-one]: the IC50 amounted to 337 nM.

Broadly, the IC50 is the point on the concentration scale where inhibition reaches its midpoint.
